# Source: US5098613A, “Anti-inflammatory agents” (Eli Lilly and Company, priority 1990, dated 1992)
# Counter-ions that a name gives are not always drawn.
# Tests used:
# [1] = tested on: IL-1 induced T-cell Proliferation; assay: Anti IL-1 Activity (Thymocyte Assay): suppression of IL-1 induced T-cell proliferation; assay type: cell-based, C3H/HeJ male mice; settings: mouse thymocytes, 48 hours, read-out: Percent T-cell suppression; for inhibition at 1 µg/mL: 1 mcg/ml; for inhibition at 10 µg/mL: 10 mcg/ml
# Experimental: Thymus from 3-4 week old C3H/HeJ male mice and were passed through a #100 mesh screen to make a single cell suspension. The cells were suspended in RPMI-1640 supplemented with 2×10^-5 M 2-mercaptoethanol, 3% fetal calf serum, and 1% Penicillin/Streptomycin. The cell suspension was placed in a tissue culture flask and incubated at 37° C. in 5% carbon dioxide in air for 1-2 hours. The thymocytes were decanted, leaving adherent cells behind, and the liquid was centrifuged at 1400 rpm for 10 minutes. After decanting the supernatant, the cells were resuspended and counted with a hemocytometer. The density was adjusted to […]. Fifty μ1 of the suspension were added to each well of a 96-well microtiter plate, followed by the addition of 25 μl of PHA and 25 μl IL-1 (1:25 dilution of a 10 mcg/ml stock solution) per well.
# Each compound to be tested was dissolved in 30% DMSO/70% PBS to make a stock solution of 1 mg/ml. Fifteen μl of each compound were added to 300 μl of media in the serial dilution plate. Twenty-five μl of each drug were added to the test plate in quadruplicate wells across the plate. The plate was incubated at 37° C. in 5% carbon dioxide in air for 48 hours. The wells were pulsed with tritiated thymidine (5 μCi.well) for 4 hours before harvesting on a Skatron cell harvester. The filter discs were placed in mini-vials, scintillation fluid (Tol-Pop) was added, and the vials counted. The percent of counts for each vial compared with control samples wherein no compound was added (vehicles only) was determined for each compound and are reported as Table III below as the percent T-ce1 suppression.
# [2] = biological target: T1, leukotriene B4 specific receptor on the membrane of human neutrophils (Homo sapiens, UniProt Q15722); assay: Inhibition of Binding of ^3 H-LTB4 to Peripheral Human Neutrophils; settings: 4° C., 10 minutes; for inhibition at 10 µM: drug concentration 10^-5 M, read-out: LTB4 Binding Inhibition; for inhibition at 1 µM: drug concentration 10^-6 M
# T1 construct: incubating neutrophils (1×10^7 cells) with 0.1-0.2 nM ^3 H-LTB4; endogenous in cells; host or cells: human peripheral blood neutrophils (buffy coats of two blood donors)
# Experimental: The effectiveness of compounds to inhibit the binding of leukotriene B4 to a specific receptor on the membrane of human neutrophils was measured by using an adaptation of a radio-ligand binding assay developed by Goldman and Goetzl, J. Immunol., 129, 1600 (1982). Other investigators have developed similar assays (see, e.g., Kreisle, et al., J. Exp. Med., 157, 628 (1983) and Lin, et al., Prostaglandins, 28, 837 (1984)).
# Cells used in the assay were isolated by standard techniques of centrifugation on Ficol-Hypaque, dextran 70 sedimentation and hypotonic lysis. The following procedure was used. Freshly-prepared buffy coat layers from two individuals were obtained from a local blood donor center. The cells were mixed and diluted to 484 ml. with phosphate buffered saline containing heparin (10 units/ml) and heat-inactivated calf serum (5%). This was divided into 20 ml. aliquots and the aliquots layered on top of Ficoll-Paque (12 ml.). The material was then centrifuged at 500 g. for 40 minutes at room temperature. The resulting upper layer of platelets and mononuclear cells was discarded. The lower layer containing erythrocytes and neutrophils was retained. Buffer was added (1 ml. per 4 ml. of lower layer) and the suspension mixed. For each milliliter of this mixture, 0.33 ml. of 6% Macrodex was added. After stirring, the cels were allowed to sediment for 1 hour at 37° C. The resulting erythrocyte pellet was discarded and the neutrophil enriched supernatant fluid centrifuged at 500 g. for 10 minutes at 4° C. Erythrocytes still present in this cell pellet were lysed by incubating the cells with 5-8 ml. ice-cold distilled water for 30-45 seconds. Subsequently, the volume was made up to 50 ml. by addition of ice-cold buffer and the cells resuspended. The suspension was then centrifuged at 300 g. for 10 minutes at 4° C. The cells were finally resuspended at a cell density of 2×10^7 cells/ml in the assay buffer. This buffer Consisted of Hanks' balanced salt solution and 0.1% ovalbumin (pH 7.3).
# The radio-ligand binding assay was conducted by incubating neutrophils (1×10^7 cells) with 0.1-0.2 nM ^3 H-LTB4 (sp. act. 150-220 Curies/mmol) and test compound (1×10^-5 M and 1×10^-6 M) for 10 minutes at 4° C. The amount of bound ^3 H-LTB4 was then measured and compared with the amount bound in the absence of test compound. The assay was carried out in microcentrifuge tubes by adding first 10 μl test compound dissolved in DMSO, followed by adding 20 μl ^3 H-LTB4 diluted in assay buffer, and finally adding 500 μl of the cell suspension pension. At the end of the 10 minutes incubation, 300 μl of a mixture of dibutyl and dinonyl phthalate (7:2) were added and the tubes centrifuged for 2 minutes in a microcentrifuge. The radioactivity bound to the cell pellet was measured by scintillation spectroscopy. Appropriate corrections for nonspecific bonding of ^3 H-LTB4 were made.
# T1 sequence (Q15722 whole entry): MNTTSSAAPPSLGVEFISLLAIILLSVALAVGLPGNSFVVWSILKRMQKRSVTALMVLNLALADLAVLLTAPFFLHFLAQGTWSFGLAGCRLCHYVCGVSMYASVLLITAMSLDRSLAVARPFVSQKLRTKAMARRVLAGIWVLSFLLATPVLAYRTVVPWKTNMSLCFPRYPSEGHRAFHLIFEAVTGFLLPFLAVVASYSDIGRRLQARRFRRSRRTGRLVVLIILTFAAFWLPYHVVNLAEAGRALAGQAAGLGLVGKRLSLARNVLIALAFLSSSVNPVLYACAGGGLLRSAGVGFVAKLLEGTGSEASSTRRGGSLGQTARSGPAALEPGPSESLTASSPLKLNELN
Structure (SMILES),inhibition at 1 µg/mL [1] [%],inhibition at 10 µg/mL [1] [%],inhibition at 10 µM [2] [%],inhibition at 1 µM [2] [%]
"CCCc1cc(C(C)=O)c(Cl)cc1OCCCCC#N [Example 15, 5-(4-Acetyl-5-chloro-2-propylphenoxy)-pentanenitrile]",33,91,35,13
"CCCCc1cc(C(C)=O)c(O)cc1OCCCCC#N [Example 30, 5-(4-Acetyl-2-butyl-5-hydroxyphenoxy)-pentanenitrile]",32,91,37,7
"CC(=O)c1cc(CO)c(OCCCCCCC#N)cc1O [Example 36, 7-[4-Acetyl-5-hydroxy-2-(hydroxymethyl)-phenoxy]heptanenitrile]",15,75,40,7
"C=CCc1cc(C(C)=O)c(O)cc1OCCCCCCCC [Example 38, 4-(Octyloxy)-5-allyl-2-hydroxyacetophenone]",-8,28,16,8
"C=CCc1cc(C(C)=O)c(O)cc1OCCCCN(C)C [Example 76, 4-[4-(Dimethylamino)butoxy]-2-hydroxy-5-allylacetophenone hydrochloride]",39,79,0,0
"CCc1cc(C(=O)c2ccccc2C(=O)O)c(O)cc1OCCCCC#N [Example 89, 2-[4-(4-Cyanobutoxy)-5-ethyl-2-hydroxybenzoyl]benzoic acid]",9,39,11,15
"CCc1cc(C(=O)CCCCC(=O)O)c(O)cc1OCCCCC#N [Example 90, 6-[(4-Cyanobutoxy)-5-ethyl-2-hydroxybenzene]-6-oxohexanoic acid]",3,47,1,-2
CCc1cc(C(=O)c2cccc(C(=O)O)c2)c(O)cc1OCCCCC#N [Example 92],5,38,40,20
"C=CCc1cc(C(=O)CCCCCCCCC)c(O)cc1OCCCCC#N [Example 107, 5-[5-Hydroxy-4-(1-oxodecyl)-2-allylphenoxy]pentanenitrile]",47,26,10,6
"C=CCc1cc(C(C)=O)c(O)cc1OCCCCc1nn[nH]n1 [Example 109, 2-Hydroxy-5-allyl-4-[4-(lH-tetrazol-5-yl)-butoxy]acetophenon]",7,56,41,3
"C=CCc1cc(C(C)=O)c(OC)cc1OCCCCC#N [Example 115, 5-(4-Acetyl-5-methoxy-2-allylphenoxy)pentanenitrile]",29,96,12 to 16,7 to 8
"CC(=O)c1cc(CC(C)O)c(OCCCCC#N)cc1O (centres unmarked) [Example 125, 5-[4-Acetyl-5-hydroxy-2-(2-hydroxypropyl)-phenoxy]pentanenitrile]",30,85,10,6
"CCc1cc(C(=O)c2ccccc2)c(O)cc1OCCCCC#N [Example 130, 5-(4-Benzoyl-2-ethyl-5-hydroxyphenoxy)pentane-nitrile]",41,99,48,23
"CCCc1cc(C(C)=O)c(O)cc1OCCCCC(=O)O [Example 132, 5-(4-Acetyl-5-hydroxy-2-propylphenoxy)pentanoic acid]",15,59,0,0
